We go through 30 molecules from US6699877B2 (Gruenenthal GmbH, priority 2000, dated 2004).

Each structure is given as a SMILES string.

This assay concerns the target T1, glycine binding site of the NMDA receptor channel (Rattus norvegicus, UniProt P35439).
T1 construct: from tissue; host or cells: rat brain cortex and hippocampus membrane homogenate
The assay is described as follows: Receptor binding, displacement of (3H)-MDL 105.519 on rat cerebral membrane homogenates. As to conditions: 10 μmol/l test substance; 1 nmol/l (3H)-MDL 105.519; read-out: Displacement (%, 10 μmol/l) of radioactive ligand from specific binding. The protocol:
Receptor Binding (Glycine Binding Site of the NMDA Receptor Channel)
Experiments to determine the affinity of the compounds according to the invention of Formula I to the glycine binding site of the NMDA receptor channel were carried out on cerebral membrane homogenates (homogenate of Cortex- and Hippocampus-Areal from the brain of male rats, Wistar strain) (B. M. Baron, B. W. Siegel, B. L. Harrison, R. S. Gross, C. and P. Towers, Journal of Pharmacology and Experimental Therapeutics, Vol. 279, p. 62, 1996).
For this purpose, Cortex and Hippocampus from freshly removed rats' brains were dissected, homogenized in 5 mmol/l TRIS-acetate buffer, 0.32 mol/l sacharose pH 7.4 (10 ml/g fresh weight) with a Potter homogenizer (made by Braun/Melsungen, 10 piston strokes at 500 rpm) while cooling with ice and subsequently centrifuged for 10 minutes at 1,000 g and 4° C. The first supernatant material was collected and the sediment homogenized again with […] TRIS-acetate buffer, 0.32 mol/l safcharose pH 7.4 (5 ml/g original fresh weight) using the Potter homogenizer (10 piston strokes at 500 rpm) while cooling with ice and centrifuged for 10 minutes at 1,000 g and 4° C. The resultant supernatant material was combined with the supernatant material from the first centrifugation and centrifuged at 17,000 g for 20 minutes at 4° C. The supernatant material after this centrifugation was discarded, the membrane sediment taken up with 5 mmol/l TRIS-acetate buffer pH 8.0 (20 ml/g original fresh weight) and homogenized with 10 piston strokes at 500 rpm.
The membrane homogenate was then incubated for 1 hour at 4° C. and centrifuged for 30 minutes at 50,000 g and 4° C. The supernatant material was discarded and the centrifuge tube with the membrane sediment sealed with parafilm and frozen for 24 hours at −20° C. The membrane sediment was thawed on the following day, taken up with ice-cold 5 mmol/l TRIS-acetate buffer, 0.1% saponin (w/v) pH 7.0 (10 ml/g original fresh weight), homogenized with 10 piston strokes at 500 rpm and subsequently centrifuged for 20 minutes at 50,00 g and 4° C. The resultant supernatant material was discarded, the sediment taken up in a small volume with 5 mmol/l TRIS-acetate buffer pH 7.0 (about 2 ml/g original fresh weight) and homogenized again with 10 piston strokes at 500 rpm. After determining the protein content, the membrane homogenate was adjusted to a protein concentration of 10 mg protein/ml using 5 mmol/l TRIS-acetate buffer pH 7.0 and frozen in aliquots for testing.
For the receptor binding test, aliquots were thawed, diluted 1:10 with 5 mmol/l TRIS-acetate buffer pH 7.0, homogenized with 10 piston strokes at 500 rpm using the potter homogenizer (10 piston strokes at 500 rpm) while cooling with ice and centrifuged for 60 minutes at 55,000 g at 4° C. The supernatant material was decanted, the membrane sediment adjusted to a protein concentration of 1 mg/ml with ice-cold 50 mmol/l TRIS-acetate buffer pH 7.0, homogenized again with 10 piston strokes at 500 rpm and kept in suspension in the ice bath while stirring on a magnetic stirrer. 100 μl of this membrane homogenate per 1 ml of feedstock was used in each case in the receptor binding test (0.1 mg protein/ml in the final batch).
In the binding test, 50 mmol/l TRIS-acetate buffer pH 7.0 was used as buffer and 1 nmol/l (^3H)-MDL 105.519 (B. M. Baron et al 1996) was used as radioactive ligand. The proportion of unspecific binding was determined in the presence of 1 mmol/l glycine.
In further batches, the compounds according to the invention were added in concentration series and the displacement of the radioactive ligand from its specific binding to the glycine binding site of the NMDA receptor channel determined. The respective triple batches were incubated for 120 minutes at 4° C. and then harvested to determine the radioactive ligands bound to the membrane homogenate by filtration through glass fiber filter mats (GF/B). […]
`CCOC(=O)C1CC(c2ccccc2)c2c(Cl)cc(Cl)cc2N1` (stereo not drawn) [Example 14, 5,7-dichloro-4-phenyl-1,2,3,4-tetrahydroquinoline-2-carboxylic Acid Ethyl Ester]: the inhibition at 10 µM amounted to 38%.

In the case of `O=C(O)C1CC(c2ccccc2)c2c(Cl)cc(Cl)cc2N1` (stereo not drawn) [Example 15, 5,7-dichloro-4-phenyl-1,2,3,4-tetrahydroquinoline-2-carboxylic Acid], the inhibition at 10 µM stood at 75%.

`CCOC(=O)C1CC(c2ccccc2C)c2c(Cl)cc(Cl)cc2N1` (stereo not drawn) [Example 16, 5,7-dichloro-4-o-tolyl-1,2,3,4-tetrahydroquinoline-2-carboxylic Acid Ethyl Ester]: the inhibition at 10 µM is 35%.

As to `CCOC(=O)C1CC(c2cccc(C)c2)c2c(Cl)cc(Cl)cc2N1` (stereo not drawn) [Example 17, 5,7-dichloro-4-m-tolyl-1,2,3,4-tetrahydroquinoline-2-carboxylic Acid Ester], the inhibition at 10 µM came out at 21%.

`Cc1cccc(C2CC(C(=O)O)Nc3cc(Cl)cc(Cl)c32)c1` (stereo not drawn) [Example 18, 5,7-dichloro-4-m-tolyl-1,2,3,4-tetrahydroquinoline-2-carboxylic Acid]: the inhibition at 10 µM amounted to 51%.

In the case of `CCOC(=O)C1CC(c2ccc(C)cc2)c2c(Cl)cc(Cl)cc2N1` (stereo not drawn) [Example 19, 5,7-dichloro-4-p-tolyl-1,2,3,4-tetrahydroquinoline-2-carboxylic Acid Ethyl Ester], the inhibition at 10 µM was found to be 26%.

On to `Cc1ccc(C2CC(C(=O)O)Nc3cc(Cl)cc(Cl)c32)cc1` (stereo not drawn) [Example 20, 5,7-dichloro-4-p-tolyl-1,2,3,4-tetrahydroquinoline-2-Carboxylic Acid], for which the inhibition at 10 µM amounted to 61%.

Take `CCOC(=O)C1CC(c2ccc(C)cc2C)c2c(Cl)cc(Cl)cc2N1` (stereo not drawn) [Example 21, 5,7-dichloro-4-(2,4-dimethylphenyl)-1,2,3,4-tetrahydroquinoline-2-carboxylic Acid Ethyl Ester]: the inhibition at 10 µM came to 26%.

For `Cc1ccc(C2CC(C(=O)O)Nc3cc(Cl)cc(Cl)c32)c(C)c1` (stereo not drawn) [Example 22, 5,7-dichloro-4-(2,4-dimethylphenyl)-1,2,3,4-tetrahydroquinoline-2-carboxylic Acid], the inhibition at 10 µM was 68%.

As to `O=C(O)C1CC(c2ccccc2F)c2c(Cl)cc(Cl)cc2N1` (stereo not drawn) [Example 27, 5,7-dichloro-4-(2-fluorophenyl)-1,2,3,4-tetrahydroquinoline-2-carboxylic Acid], the inhibition at 10 µM stood at 75%.

Turning to `CCOC(=O)C1CC(c2cccc(F)c2)c2c(Cl)cc(Cl)cc2N1` (stereo not drawn) [Example 28, 5,7-dichloro-4-(3-fluorophenyl)-1,2,3,4-tetrahydroquinoline-2-carboxylic Acid Ethyl Ester], the inhibition at 10 µM came out at 35%.

Regarding `O=C(O)C1CC(c2cccc(F)c2)c2c(Cl)cc(Cl)cc2N1` (stereo not drawn) [Example 29, 5,7-dichloro-4-(3-fluorophenyl)-1,2,3,4-tetrahydroquinoline-2-carboxylic Acid], the inhibition at 10 µM came out at 78%.

With `CCOC(=O)C1CC(c2ccc(F)cc2)c2c(Cl)cc(Cl)cc2N1` (stereo not drawn) [Example 30, 5,7-dichloro-4-(4-fluorophenyl)-1,2,3,4-tetrahydroquinoline-2-carboxylic Acid Ethyl Ester], the inhibition at 10 µM is 32%.

For the molecule `O=C(O)C1CC(c2ccc(F)cc2)c2c(Cl)cc(Cl)cc2N1` (stereo not drawn) [Example 31, 5,7-dichloro-4-(4-fluorophenyl)-1,2,3,4-tetrahydroquinoline-2-carboxylic Acid], the inhibition at 10 µM was 58%.

For the molecule `O=C(O)C1CC(c2ccccc2Cl)c2c(Cl)cc(Cl)cc2N1` (stereo not drawn) [Example 32, 5,7-dichloro-4-(2-chlorophenyl)-1,2,3,4-tetrahydroquinoline-2-carboxylic Acid], the inhibition at 10 µM is 92%.

Take `CCOC(=O)C1CC(c2ccccc2Br)c2c(Cl)cc(Cl)cc2N1` (stereo not drawn) [Example 36, 4-(2-bromophenyl)-5,7-dichloro-1,2,3,4-tetrahydroquinoline-2-carboxylic Acid Ethyl Ester]: the inhibition at 10 µM amounted to 46%.

Consider `O=C(O)C1CC(c2cccc(Br)c2)c2c(Cl)cc(Cl)cc2N1` (stereo not drawn) [Example 38, 4-(3-bromophenyl)-5,7-dichloro-1,2,3,4-tetrahydroquinoline-2-carboxylic Acid], for which the inhibition at 10 µM was found to be 72%.

Consider `O=C(O)C1CC(c2ccc(Br)cc2)c2c(Cl)cc(Cl)cc2N1` (stereo not drawn) [Example 40, 4-(4-bromophenyl)-5,7-dichloro-1 ,2,3,4-tetrahydroquinoline-2-carboxylic Acid], for which the inhibition at 10 µM came to 70%.

Regarding `CCOC(=O)C1CC(c2cccc(C(F)(F)F)c2)c2c(Cl)cc(Cl)cc2N1` (stereo not drawn) [Example 41, 5,7-dichloro-4-(3-trifluoromethylphenyl)-1,2,3,4-tetrahydroquinoline-2-carboxylic Acid Ethyl Ester], the inhibition at 10 µM was determined as 38%.

As for `CCOC(=O)C1Nc2cc(Cl)cc(Cl)c2C(c2ccccc2)C1C` (stereo not drawn) [Example 42, 5,7-dichloro-3-methyl-4-phenyl-1,2,3,4-tetrahydroquinoline-2-carboxylic Acid Ethyl Ester], the inhibition at 10 µM was determined as 21%.

Regarding `CCOC(=O)C1CC(c2ccc(F)cc2)c2cc(Cl)ccc2N1` (stereo not drawn) [Example 51, 6-chloro-4-(4-fluorophenyl)-1,2,3,4-tetrahydroquinoline-2-carboxylic Acid Ethyl Ester], the inhibition at 10 µM came to 21%.

As to `CCOC(=O)C1CC(c2ccccc2Cl)c2cc(Cl)ccc2N1` (stereo not drawn) [Example 52, 6-chloro-4-(2-chlorophenyl)-1,2,3,4-tetrahydroquinoline-2-carboxylic Acid Ethyl Ester], the inhibition at 10 µM was 22%.

For `CCOC(=O)C1CC(c2ccccc2Br)c2cc(Cl)ccc2N1` (stereo not drawn) [Example 54, 6-chloro-4-(2-bromophenyl)-1,2,3,4-tetrahydroquinoline-2-carboxylic Acid Ethyl Ester], the inhibition at 10 µM turned out to be 22%.

Take `CCOC(=O)C1Nc2cc(Cl)cc(Cl)c2C2CCCC12` (stereo not drawn) [Example 59, 7,9-dichloro-2,3,3a,4,5,9b-hexahydro-1H-cyclopenta[c]quinoline-4-carboxylic Acid Ethyl Ester]: the inhibition at 10 µM is 14%.

With `CCOC(=O)C1Nc2cc(Cl)cc(Cl)c2C2C3CCC(C3)C12` (stereo not drawn) [Example 60, 1,3-dichloro-7,10-methano-5,6,6a,7,8,9,10,10a-octahydrophenanthridine-6-carboxylic Acid Ethyl Ester], the inhibition at 10 µM worked out at 23%.

For `CCOC(=O)C1Nc2cc(Cl)cc(Cl)c2C2c3ccccc3CC12` (stereo not drawn) [Example 61], the inhibition at 10 µM is 15%.

For `O=C(O)C1CC(c2ccc3ccccc3c2)c2cc(F)cc(Cl)c2N1` (stereo not drawn) [Example 81, 8-chloro-6-fluoro-4-naphthalene-2-yl-1,2,3,4-tetrahydroquinoline-2-carboxylic acid], the inhibition at 10 µM was 66%.

`COc1ccc(C2c3cc(Oc4ccccc4)ccc3NC(C(=O)O)C2C)cc1` (stereo not drawn) [Example 82, 4-(4-methoxyphenyl)-3-methyl-6-phenoxy-1,2,3,4-tetrahydroquinoline-2-carboxylic acid]: the inhibition at 10 µM was 96%.

Regarding `Cc1cccc(C2CC(C(=O)O)Nc3c(F)cc(Cl)cc32)c1` (stereo not drawn) [Example 83, 6-chloro-8-fluoro-4-m-tolyl-1,2,3,4-tetrahydroquinoline-2-carboxylic acid], the inhibition at 10 µM stood at 93%.

For the molecule `Cc1cccc(C2CC(C(=O)O)Nc3c(Cl)cc(F)cc32)c1` (stereo not drawn) [Example 84, 8-chloro-6-fluoro-4-m-tolyl-1,2,3,4-tetrahydroquinoline-2-carboxylic acid], the inhibition at 10 µM amounted to 79%.
